These results are taken from patent publication US10577362B2, “Substituted 2, 4-diamino-quinoline derivatives for use in the treatment of proliferative diseases” (GENOSCIENCE PHARMA, priority 2016, dated 2020).

Holding throughout (type): cell-based, human
The subject of experiment [1] is Huh7 (hepatocellular carcinoma) cell line. The experiment is described as follows: CellTiter-Glo luminescent cell viability assay, Huh7. The conditions noted are these: for pEC50: Huh7 cell line, 72 h incubation, CellTiter-Glo, read-out: EC50, growth inhibition of Huh7; for viability at 4 µM: Huh7, compound at 4 μM; for viability at 4 µM / viability at 10 µM: 72 h; for viability at 10 µM: Huh7, compound at 10 μM. The essentials:
(§1)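 Cells were cultured at 37 °C, 5% CO2 with 10% FBS; adherent lines were plated overnight, suspension MOLM-14 plated 1 h before dosing. Compounds in H2O or DMSO were added at various concentrations for 72 h, and viability was read by luminescence. EC50 is the dose reducing signal to 50% of diluent control.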
(In general: Cellular ATP, detected with luciferase, serves as a proxy for viable cell number.)

The test system of experiment [2] is MOLM-14 (acute myeloid leukemia) cell line. The experiment is described as follows: CellTiter-Glo luminescent cell viability assay, MOLM-14. Conditions: for pEC50: MOLM-14 cell line, 72 h incubation, CellTiter-Glo, read-out: EC50, growth inhibition of MOLM-14; for viability at 4 µM: MOLM-14, compound at 4 μM; for viability at 4 µM / viability at 10 µM: 72 h; for viability at 10 µM: MOLM-14, compound at 10 μM. In a few lines:
as §1

Experiment [3] concerns 786-O (renal adenocarcinoma) cell line. The experiment is described as follows: CellTiter-Glo luminescent cell viability assay, 786-O. Conditions: for pEC50: 786-O cell line, 72 h incubation, CellTiter-Glo, read-out: EC50, growth inhibition of 786-O; for viability at 4 µM / viability at 10 µM: 786-O, 72 h; for viability at 4 µM: compound at 4 μM; for viability at 10 µM: compound at 10 μM. The essentials: (§2)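 72 h compound exposure, 37 °C, 5% CO2, 10% FBS medium; ATP luminescence read after 30 min RT equilibration. Viability as % of H2O/DMSO diluent control; EC50 = dose giving 50% of control signal. Duplicate points minimum.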

Experiment [4] concerns HCT-116 (colorectal carcinoma) cell line. The experiment is described as follows: CellTiter-Glo luminescent cell viability assay, HCT-116. The conditions noted are these: for pEC50: HCT-116 cell line, 72 h incubation, CellTiter-Glo, read-out: EC50, growth inhibition of HCT-116; for viability at 4 µM: HCT-116, compound at 4 μM; for viability at 4 µM / viability at 10 µM: 72 h; for viability at 10 µM: HCT-116, compound at 10 μM. The essentials:
as §2

Experiment [5] has as its system HepG2 (hepatocellular carcinoma) cell line. Briefly: CellTiter-Glo luminescent cell viability assay, HepG2. Conditions: for pEC50: HepG2 cell line, 72 h incubation, CellTiter-Glo, read-out: EC50, growth inhibition of HepG2; for viability at 4 µM / viability at 10 µM: HepG2, HepG, 72 h; for viability at 4 µM: compound at 4 μM; for viability at 10 µM: compound at 10 μM. In a few lines:
as §1

Experiment [6] relates to A375 (malignant melanoma) cell line. Briefly: CellTiter-Glo luminescent cell viability assay, A375. The conditions noted are these: for pEC50: A375 cell line, 72 h incubation, CellTiter-Glo, read-out: EC50, growth inhibition of A375; for viability at 4 µM: A375, compound at 4 μM; for viability at 4 µM / viability at 10 µM: 72 h; for viability at 10 µM: A375, compound at 10 μM. In a few lines:
as §2

Molecules are shown by their SMILES. pEC50: −log10 of the molar value. Counter-ions that a name gives are not always drawn. Like-named read-outs stand apart in the source and are kept apart here.

What is called pEC50 is the negative decadic logarithm of the EC50, by convention in mol/L. With `OC[C@@H]1CCCN1c1cc(NCc2ccc(Cl)cc2)nc2ccccc12` [Compound 2308, (2S) 2-(4-chlorobenzylamino)-4-[2-(hydroxymethyl)pyrrolidin-1-yl]quinoline, hydrochloride], the pEC50 was 5.30 to 6.30 in experiment [1]; 5.30 to 6.30 in experiment [2]; 5.00 to 5.30 in experiment [3]; 5.00 to 5.30 in experiment [4]; 5.30 to 6.30 in experiment [5]; 5.30 to 6.30 in experiment [6].

For orientation: viability means a per cent measure of how many cells are alive, often set against a control. Take `CC(C)(C)NC1CCN(c2c(C#N)c(NCc3ccc(Cl)cc3)nc3ccccc23)CC1` [Compound 352CN, 2-(4-chlorobenzylamino)-3-cyano-4-[4-(tert-butylamino)piperidin-1-yl]quinoline]: the viability at 4 µM was 73.2% in experiment [1] (Homo sapiens, Huh-7); 76.9% in experiment [2] (Homo sapiens); 52.4% in experiment [3] (Homo sapiens, 786-0); 43.9% in experiment [4] (Homo sapiens); 71.2% in experiment [5] (Homo sapiens); 29.1% in experiment [6] (Homo sapiens, A-375). For the same compound, the viability at 10 µM in experiment [1] (Homo sapiens, Huh-7) was 0.6%; in experiment [2] (Homo sapiens) it was 0.6%; in experiment [3] (Homo sapiens, 786-0), 0.5%; in experiment [4] (Homo sapiens), 0.5%; in experiment [5] (Homo sapiens), 0.6%; in experiment [6] (Homo sapiens, A-375), 0.5%.

Consider `CC(C)(C)NC1CCN(c2c(C#N)c(Nc3cccc(Nc4nccc(C(F)(F)F)n4)c3)nc3ccccc23)CC1` [Compound 540CN, 2-[3-(4-trifluoromethylpyrimidin-2-ylamino)phenylamino]-3-cyano-4-(4-tert-butylaminopiperidin-1-yl)quinoline], for which the pEC50 in experiment [1] (Homo sapiens, Huh-7) is 5.30 to 6.30; in experiment [2] (Homo sapiens), 5.30 to 6.30; in experiment [3] (Homo sapiens, 786-0), 5.30 to 6.30; in experiment [4] (Homo sapiens), 5.30 to 6.30; in experiment [5] (Homo sapiens), 5.00 to 5.30; in experiment [6] (Homo sapiens, A-375), 5.30 to 6.30.

Consider `Clc1ccc(CNc2cc(N3CCC(Oc4cnccn4)CC3)c3ccccc3n2)cc1` [Compound 2958, 2-(4-chlorobenzylamino)-4-[4-(pyrazin-2-yloxy)piperidin-1-yl]quinoline hydrochloride], for which the pEC50 in experiment [1] (Homo sapiens, Huh-7) was 5.30 to 6.30; in experiment [2] (Homo sapiens), 5.30 to 6.30; in experiment [3] (Homo sapiens, 786-0), 5.00 to 5.30; in experiment [4] (Homo sapiens), 5.00 to 5.30; in experiment [5] (Homo sapiens), 5.30 to 6.30; in experiment [6] (Homo sapiens, A-375) it was 5.00 to 5.30.

As to `Cc1ccc2c(N3CCC(NC(C)(C)C)CC3)cc(NCc3ccc(Cl)cc3)nc2c1F` [Compound 564, 2-(4-chlorobenzylamino)-4-[4-(tert-butylamino)piperidin-1-yl]-7-methyl-8-fluoroquinoline], the pEC50 is 5.00 to 5.30 in experiment [1] (Homo sapiens, Huh-7); 5.30 to 6.30 in experiment [2] (Homo sapiens); 5.30 to 6.30 in experiment [3] (Homo sapiens, 786-0); 5.30 to 6.30 in experiment [4] (Homo sapiens); 5.30 to 6.30 in experiment [5] (Homo sapiens); 5.30 to 6.30 in experiment [6] (Homo sapiens, A-375).

With `Cc1cc(Nc2nc3ccccc3c(N3CCC(NC(C)(C)C)CC3)c2C#N)ccc1Nc1nccc(-c2cccnc2)n1` [Compound 3131CN, 2-[4-(4-(pyridin-3-yl)pyrimidin-2-ylamino)-3-methylphenylamino]-3-cyano-4-(4-tert-butylaminopiperidin-1-yl)quinoline], the viability at 4 µM in experiment [1] (Homo sapiens, Huh-7) came out at 87%; in experiment [2] (Homo sapiens) it was 80.1%; in experiment [3] (Homo sapiens, 786-0), 42.6%; in experiment [4] (Homo sapiens), 63.9%; in experiment [5] (Homo sapiens), 80.6%; in experiment [6] (Homo sapiens, A-375), 79.4%. Moreover, the viability at 10 µM in experiment [1] (Homo sapiens, Huh-7) stood at 69.8%; in experiment [2] (Homo sapiens) it was 7.3%; in experiment [3] (Homo sapiens, 786-0), 0.1%; in experiment [4] (Homo sapiens), 0.1%; in experiment [5] (Homo sapiens), 0.1%; in experiment [6] (Homo sapiens, A-375), 0.1%.

With `Cc1cccc(OC2CCN(c3cc(NCc4ccc(Cl)cc4)nc4ccccc34)CC2)c1` [Compound 2946, 2-(4-chlorobenzylamino)-4-[4-(m-tolyloxy)piperidin-1-yl]quinoline hydrochloride], the pEC50 in experiment [1] (Homo sapiens, Huh-7) was 5.00 to 5.30; in experiment [2] (Homo sapiens) it was 5.00 to 5.30; in experiment [3] (Homo sapiens, 786-0), 5.00 to 5.30; in experiment [4] (Homo sapiens), 5.00 to 5.30; in experiment [5] (Homo sapiens), 5.00 to 5.30; in experiment [6] (Homo sapiens, A-375), 5.30 to 6.30.
